Assay results taken from patent US10011573B2, “Human androgen receptor DNA-binding domain (DBD) compounds as therapeutics and methods for their use” (The University of British Columbia, priority 2014, dated 2018).
Numbering of substitutions follows the chain as printed.

What was measured:
[1] = molecular target: T1, androgen receptor (AR) (Homo sapiens, UniProt P10275, T878A); test: eGFP cellular AR transcription assay (LNCaP eGFP cells, LN-ARR2PB-eGFP); conditions: for anti-AR activity (AR transcriptional inhibition) in words: LNCaP (T877A AR); for partial agonistic effect: LNCaP eGFP cells
T1 sequence (P10275 1-920 T878A): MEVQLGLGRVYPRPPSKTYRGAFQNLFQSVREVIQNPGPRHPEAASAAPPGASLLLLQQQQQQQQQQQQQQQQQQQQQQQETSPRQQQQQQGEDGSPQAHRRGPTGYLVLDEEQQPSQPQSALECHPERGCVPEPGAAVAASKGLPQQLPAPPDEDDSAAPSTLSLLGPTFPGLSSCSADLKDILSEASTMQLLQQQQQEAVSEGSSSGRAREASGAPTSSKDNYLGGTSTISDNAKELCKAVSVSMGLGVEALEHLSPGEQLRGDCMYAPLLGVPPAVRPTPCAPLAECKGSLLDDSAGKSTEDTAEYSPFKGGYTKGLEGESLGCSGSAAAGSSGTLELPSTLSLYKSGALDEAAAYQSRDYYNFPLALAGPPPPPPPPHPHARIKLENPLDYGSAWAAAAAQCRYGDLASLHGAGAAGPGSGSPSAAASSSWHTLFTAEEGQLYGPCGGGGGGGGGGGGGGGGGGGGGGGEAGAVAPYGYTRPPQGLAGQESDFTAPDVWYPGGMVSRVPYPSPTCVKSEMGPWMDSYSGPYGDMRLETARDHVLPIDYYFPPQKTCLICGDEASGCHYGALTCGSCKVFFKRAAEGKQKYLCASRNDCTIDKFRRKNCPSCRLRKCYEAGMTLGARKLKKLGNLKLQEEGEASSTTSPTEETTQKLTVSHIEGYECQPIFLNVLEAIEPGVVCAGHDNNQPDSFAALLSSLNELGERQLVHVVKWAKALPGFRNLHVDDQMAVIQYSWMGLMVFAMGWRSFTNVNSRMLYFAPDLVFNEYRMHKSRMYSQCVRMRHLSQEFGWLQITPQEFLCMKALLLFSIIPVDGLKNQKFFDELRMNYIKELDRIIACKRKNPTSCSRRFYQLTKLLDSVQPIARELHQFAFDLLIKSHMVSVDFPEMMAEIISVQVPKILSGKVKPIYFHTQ

[2] = molecular target: AR DBD (Homo sapiens, UniProt P10275)
[3] = tested on: endogenous wild type AR; test: ARR3tk-luciferase assay in R1-AD1 cells; type: cell-based, human; conditions: 0.1 nM R1881
[4] = tested on: PSA; test: Prostate-specific antigen (PSA) assay, secreted PSA from the eGFP assay plates; type: cell-based, human; conditions: Homo sapiens
Experimental: 3. Prostate-specific antigen (PSA) assay: The evaluation of PSA levels secreted into the media was performed in parallel to the eGFP assay using the same plates. After cells were incubated for 3 days, 150 μl of the media was taken from each well, and added to 150 μl of PBS.

[5] = molecular target: T2, full-length human AR (Homo sapiens, UniProt P10275); test: ARR3tk-luciferase reporter assay in PC3 cells, wild-type AR; type: cell-based
T2 construct: expressed in transfected cells; host or cells: PC3 (AR-negative human prostate cancer cells)
T2 sequence (P10275 1-920): T1 sequence (P10275 1-920 T878A) with A878T
Experimental: (§1) 9. Transient Transfection: The PC3/MCF7 cells were seeded into a 96-well plate (2,000 cells/well). After 24 hrs, the wild-type AR (50 ng/well)/AR mutants and AR3TK-luciferase plasmids (1:3) were co-transfected into PC3 cells or ERE-luciferase (50 ng/well) was transfected into MCF7 cells using transfection reagent TT20. 24 hrs after the transfection, the cells were treated with the compounds at various concentrations. And 24 hrs later, the cells were lysed and the reading was taken using a luminometer.

[6] = molecular target: T3, T877A-AR mutant (Homo sapiens, UniProt P10275, T878A); test: Luciferase reporter assay in PC3 cells, T877A-AR; type: cell-based; conditions: presence and absence of R1881
T3 construct: expressed in transfected cells; host or cells: PC3
Experimental: as §1

[7] = molecular target: T4, AR hormone binding site (recombinant wild type LBD) (Rattus norvegicus, UniProt P15207); test: Androgen displacement assay (Polar Screen Androgen Receptor Competitor Green Assay Kit); conditions: fluorescence polarization
T4 construct: displace DHT from the ABS site of recombinant wild type LBD
T4 sequence (P15207 651-882 limits assumed): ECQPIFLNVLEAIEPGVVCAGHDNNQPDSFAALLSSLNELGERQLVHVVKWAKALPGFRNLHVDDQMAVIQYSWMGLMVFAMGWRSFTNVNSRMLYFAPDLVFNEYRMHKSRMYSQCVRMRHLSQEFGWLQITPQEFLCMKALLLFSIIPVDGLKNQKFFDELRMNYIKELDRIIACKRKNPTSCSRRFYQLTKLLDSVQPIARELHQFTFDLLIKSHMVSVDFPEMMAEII
Experimental: 5. Androgen displacement assay: The androgen displacement was assessed with the Polar Screen Androgen Receptor Competitor Green Assay Kit as per the instructions of the manufacturer (Lack, Axerio-Cilies et al. 2011).
The ability of the above chemicals to displace DHT from the ABS site of recombinant wild type LBD was measured using a fluorescent polarization assay (PolarScreen™, Life Technologies) at various concentrations.

[8] = molecular target: T5, AR(1-653) truncation mutant (Homo sapiens, UniProt P10275); conditions: 25 μM, PC3 cells, ARR3tk-luciferase; cited from earlier work
T5 construct: host or cells: PC3 co-transfected with ARR3tk-luciferase

[9] = tested on: PSA; test: PSA measurements, LNCaP cells, 1 nM R1881, 2 days; type: cell-based, human
Experimental: Following the incubation period, 150 μl of the media was taken from each well, and PSA levels were quantified using a Cobas e411 analyzer (Roche Applied Science™) according to the manufacturer's instructions. The same instrument was used to analyze serum PSA from mice during the in vivo analysis.

[10] = tested on: FKBP5; test: Western blot FKBP5 protein in R1-D567 cells; type: cell-based, human
Experimental: (§2) Cell lysates (40 μl) from luciferase assays (96-well plate) were separated on a 10% SDS-polyacrylamide mini gel. Protein was transferred to methanol-charged PVDF membranes and probed with anti-AR441 (mouse, Sigma™) monoclonal primary antibody. Blots were also probed with polyclonal anti-actin (rabbit, Sigma™) to show equal loading and polyclonal anti-PARP/anti-cleaved PARP (rabbit, Sigma™) to test for induction of apoptosis. Lysates from CWR-R1 cells were additionally probed with polyclonal anti-FKBP5 (rabbit, Sigma™) following 2 days of incubation with compounds.

[11] = tested on: FKBP5; test: Western blot FKBP5 protein in R1-AD1 cells; type: cell-based, human
Experimental: as §2

[12] = molecular target: T6, ER-α (Homo sapiens, UniProt P03372); test: Estrogen-response element-luciferase assay in MCF-7 cells; type: cell-based
T6 construct: endogenous in cells; host or cells: MCF-7 with ERE-luciferase reporter
T6 sequence (P03372 whole entry): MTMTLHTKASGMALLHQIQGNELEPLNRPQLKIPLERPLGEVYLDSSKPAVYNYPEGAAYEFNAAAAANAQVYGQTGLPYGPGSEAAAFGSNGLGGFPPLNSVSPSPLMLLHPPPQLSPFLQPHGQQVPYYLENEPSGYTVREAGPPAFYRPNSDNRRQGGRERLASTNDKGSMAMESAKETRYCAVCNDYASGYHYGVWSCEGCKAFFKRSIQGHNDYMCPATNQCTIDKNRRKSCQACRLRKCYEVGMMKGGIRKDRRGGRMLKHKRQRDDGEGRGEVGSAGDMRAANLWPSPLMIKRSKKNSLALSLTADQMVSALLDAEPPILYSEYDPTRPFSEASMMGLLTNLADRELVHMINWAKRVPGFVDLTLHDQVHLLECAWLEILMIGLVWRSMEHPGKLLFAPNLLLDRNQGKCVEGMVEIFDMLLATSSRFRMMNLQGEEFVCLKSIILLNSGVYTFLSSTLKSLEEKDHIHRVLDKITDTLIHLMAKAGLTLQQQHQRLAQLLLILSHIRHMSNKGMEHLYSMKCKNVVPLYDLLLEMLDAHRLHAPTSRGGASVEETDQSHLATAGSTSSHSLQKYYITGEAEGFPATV
Experimental: as §1

[13] = eGFP IC50, LNCaP eGFP cells, 0.1 nM R1881

| IC50 ([1]; eGFP IC50 (μM), Series 1) [µM] | IC50 [1, 13] [µM] | anti-AR activity (AR transcriptional inhibition) in words [1] | partial agonistic effect [1] | Androgen Displacement IC50 [7] | SMILES | also measured |
| --- | --- | --- | --- | --- | --- | --- |
|  |  |  |  |  | COc1c(Cl)cc(-c2csc(N3CCOCC3)n2)cc1Cl [Compound 14288] | % Inhibition (3 μM) [1]: 35.89%; digestion of AR DBD by trypsin in presence of compound [2]: not digested |
| 0.03 | 0.035 |  |  |  | COc1c(F)cccc1-c1csc(N2CCOCC2)n1 [Compound 14368] | agonistic effect at high concentrations [3]: not observed; AR transcriptional activity in the absence of R1881 ([1]; LNCaP eGFP cells without R1881): vigorously enhance AR transcriptional activity; IC50 ([4]; Series 1): 130 nM; AR transcription, wild type AR, presence of R1881 [5]: inhibited by 14368 in a dose response manner; AR transcriptional activity, wild type AR, absence of androgen [5]: only a basal level of transcriptional activity; concentration inducing transcriptional activation of T877A AR mutant [6]: higher than 0.4 μM; IC50 [7]: 31300 nM |
| 0.26 | 0.27 ± 0.02 | maintained good potency | no undesired partial agonistic effect | No displacement | c1cc(-c2csc(N3CCOCC3)n2)cs1 [Compound 14404, 4-(4-(thiophen-3-yl)thiazol-2-yl)morpholine] | IC50 ([4]; Series 1): 220 nM |
| 2.61 | 3.87 ± 1.26 | maintained good potency | no undesired partial agonistic effect | No displacement | c1cc(-c2csc(N3CCOCC3)n2)ccn1 [Compound 14435] |  |
| 2.51 | 4.53 ± 0.26 | maintained good potency | no undesired partial agonistic effect | No displacement | c1ccc(-c2csc(N3CCOCC3)n2)nc1 [Compound 14436] |  |
|  | 0.16 ± 0.03 | maintained good potency | no undesired partial agonistic effect | low displacement | c1cncc(-c2csc(N3CCOCC3)n2)c1 [Compound 14439] | inhibition at 3 µM ([1]; LNCaP, read-out: % Inhibition (3 μM)): 81% |
|  |  |  |  |  | CC(C)(c1ccc(OCC(O)CO)cc1)c1ccc(OCC(O)CCl)cc1 (stereo not drawn) [EPI-001] | inhibition of AR(1-653) truncation mutant [8]: ~80% |
|  |  |  |  |  | CNC(=O)c1ccc(N2C(=S)N(c3ccc(C#N)c(C(F)(F)F)c3)C(=O)C2(C)C)cc1F [enzalutamide, reference compound] | IC50 secreted PSA [9]: sub-micromolar; FKBP5 protein expression, R1-D567 cells [10]: only affected R1-AD1 cells; IC50 ([4]; LNCaP eGFP cells, R1881, secreted PSA): 120 nM; FKBP5 protein expression, R1-AD1 cells [11]: only affected R1-AD1 cells; effect on ER transcriptional activity [12]: considerable cross-reactivity |
